Experimental data published in patent US6303101A, “Bismuth compounds” (Nycomed Imaging AS, priority 1995, dated 2001).

Legend:
Helicobacter pylori = test: Minimal Inhibitory Concentrations against Helicobacter pylori on agar plates; assay type: cell-based
Procedure: Activity of bismuth compounds against Helicobarter pylori
Various bismuth compounds were tested in different concentrations against Helicobacter pylori on agar plates. Minimal Inhibitory Concentrations (MIC--values) are given in mg substance per litre.

[1] = stability against hydrolysis; assay type: physicochemical; details: dissolved in aqueous (25%) tetrahydrofuran, under reflux
Source text: When the R1-5 -groups form Bi--C bonds, aryl grou7ps are generally preferred. At least one of the R1-5 -groups should be an aryl group or substituted aryl group. The term "aryl group" here means any aromatic hydrocarbon ring system or aromatic heterocyclic system. Typical ring systems include for example benzene, naphthalene, indene, fluorene, phenalene, phenanthrene, anthracene, fluoranthene, acephenanthrylene, aceanthrylene, triphenylene, pyrene, chrysene, naphthacene, pleiadene, picene, perylene, pentaphene, pentacene, tetraphenylene, hexaphene, hexacene, rubicene, coronene, trinaphthylene, heptaphene, rubicene, coronene, heptacene, pyranthrene, ovalene, furan, thiophene, thianthrene, pyran, isobenzofuran, chromene, xanthene, phenoxathin, pyrrole, imidazole, pyrazole, isothiazole, isoxazole, pyridine, pyrazine, pyrimidine, pyradizine, indolizine, isoindole, indole, indazole, purine, quinolizine, isocaunoline, quinoline, phtalazine, naphyhyridine, quinoxaline, quinazoline, cinnoline, pteridine, carbazole, β-carboline, phenanthridine, acridine, permidine, phenanthroline, phenazine, phenarsazine, phenothiazine, furazan, phenoxazine, isochroman, chroman, indoline and iso-indoline.

Row | Molecule | Minimal Inhibitory Concentration (MIC - value) (Helicobacter pylori) [mg substance per litre] | stability against hydrolysis [1]
1 | O=[N+]([O-])[O-].O=[N+]([O-])[O-].O=[N+]([O-])[O-].O=[N+]([O-])[O-].[Bi+3].[Bi+3].[Bi+3].[Bi+3].[Bi+3].[O-2].[OH-].[OH-].[OH-].[OH-].[OH-].[OH-].[OH-].[OH-].[OH-] [Bismuth subnitrate, bismuth hydroxide nitrate oxide] | 32 | 
2 | c1cc[c]([Bi]([c]2ccccc2)[c]2ccccc2)cc1 [triphenylbismuth] |  | stable under reflux for many days
3 | Triphenylbismuthine difluoride [Example 16] | 8 | 
4 | Tris(2,4,6trimethylphenyl)bismuthine dichloride [Example 15] | ≤ 0.25 | 
